Assay results published in patent US9421209B2, “Kinase modulators” (Rhizen Pharmaceuticals SA, priority 2009, dated 2016).
Like-named read-outs stand apart in the source and are kept apart here.

What was measured:
P110β = P110β (Homo sapiens, UniProt P42338); assay: Fluorescent (HTRF) determination of PI3K enzyme activity, β isoform; type: biochemical
In short: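 Recombinant human PI3K isoforms incubated 10 min at room temperature with inhibitor and 1.38 μM PIP2 (10 mM MgCl2, 5 mM DTT), then 30 min after adding 400 μM ATP stock. PIP3 formation detected by HTRF (665/620 nm); % inhibition versus blank and enzyme controls gives IC50.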

P110γ = P110γ (Homo sapiens, UniProt P48736); assay: Fluorescent (HTRF) determination of PI3K enzyme activity, γ isoform; type: biochemical
P110γ, sequence (P48736 whole entry, canonical isoform): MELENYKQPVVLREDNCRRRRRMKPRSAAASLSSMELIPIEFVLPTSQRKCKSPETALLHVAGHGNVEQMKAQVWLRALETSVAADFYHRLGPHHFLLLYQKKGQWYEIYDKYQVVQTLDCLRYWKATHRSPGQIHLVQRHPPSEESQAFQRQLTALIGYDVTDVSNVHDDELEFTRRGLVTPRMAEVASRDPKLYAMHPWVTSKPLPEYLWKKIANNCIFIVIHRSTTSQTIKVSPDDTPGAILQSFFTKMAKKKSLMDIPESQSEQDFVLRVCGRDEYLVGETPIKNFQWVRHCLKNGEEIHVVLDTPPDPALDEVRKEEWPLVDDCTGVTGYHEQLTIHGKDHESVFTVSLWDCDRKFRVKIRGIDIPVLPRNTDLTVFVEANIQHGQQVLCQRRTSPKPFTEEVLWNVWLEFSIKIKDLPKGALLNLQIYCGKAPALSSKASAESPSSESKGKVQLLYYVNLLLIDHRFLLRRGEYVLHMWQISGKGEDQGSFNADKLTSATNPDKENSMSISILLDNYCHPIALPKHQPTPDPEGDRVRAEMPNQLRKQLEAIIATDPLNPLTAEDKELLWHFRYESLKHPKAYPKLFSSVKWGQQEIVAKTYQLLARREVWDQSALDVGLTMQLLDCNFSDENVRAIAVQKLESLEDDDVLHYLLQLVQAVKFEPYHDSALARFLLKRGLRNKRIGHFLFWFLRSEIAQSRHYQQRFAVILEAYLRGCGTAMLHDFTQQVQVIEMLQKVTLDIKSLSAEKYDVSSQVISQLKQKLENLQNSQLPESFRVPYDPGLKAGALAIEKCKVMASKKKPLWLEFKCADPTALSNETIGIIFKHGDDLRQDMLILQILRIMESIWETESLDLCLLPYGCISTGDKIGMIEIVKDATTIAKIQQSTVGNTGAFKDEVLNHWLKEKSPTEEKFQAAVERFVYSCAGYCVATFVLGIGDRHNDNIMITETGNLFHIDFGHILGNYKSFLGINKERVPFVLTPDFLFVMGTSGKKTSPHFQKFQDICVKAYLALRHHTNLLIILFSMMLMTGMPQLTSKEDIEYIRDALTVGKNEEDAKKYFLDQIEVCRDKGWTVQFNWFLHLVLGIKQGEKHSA
From the text: (§1) Assay 1: Fluorescent determination of PI3Kinase Kinase enzyme activity
(§2) Phosphoinositide 3 kinases (PI3K) belong to a class of lipid kinases that play a critical role in the regulation of several key cellular processes. The PI3K are capable of phosphorylating the 3-hydroxy position of phosphoinositols thereby generating second messengers involved in downstream signalling events. The homogenous time resolved fluorescence (HTRF) assay allows detection of 3,4,5-triphosphate (PIP3) formed as a result of phosphorylation of phosphotidylinositol 4,5-biphosphate (PIP2) by PI3K isoforms such as α, β, γ or δ.
(§3) PI3K isoform activity for α, β, γ or δ was determined using a PI3K human HTRF™ Assay Kit (Millipore, Billerica, Mass.) with modifications. All incubations were carried out at room temperature. Briefly, 0.5 μl of 40× inhibitor (in 100% DMSO) or 100% DMSO were added to each well of a 384-well black plate (Greiner Bio-One, Monroe, N.C.) containing 14.5 μl 1× reaction buffer/PIP2 (10 mM MgCl2, 5 mM DTT, 1.38 μM PIP2) mix with or without enzyme and incubated for 10 min. After the initial incubation, 5 μl/well of 400 μM ATP was added and incubated for an additional 30 minutes. Reaction was terminated by adding 5 μl/well stop solution (Millipore, Billerica, Mass.). Five microliters of detection mix (Millipore, Billerica, Mass.) were then added to each well and was incubated for 6-18 h in the dark. HRTF ratio was measured on a microplate reader (BMG Labtech., Germany) at an excitation wavelength of 337 nm and emission wavelengths of 665 and 620 nm with an integration time of […]. Data were analyzed using Graphpad Prism (Graphpad software; San Diego Calif.) for IC50 determination. Percent inhibition was calculated based on the values for the blank and enzyme controls. The results are provided below in Table 2 & 3.

P110 δ/Pi3K δ = P110 δ/Pi3K δ (Homo sapiens, UniProt O00329); assay: Fluorescent (HTRF) determination of PI3K enzyme activity, δ isoform; type: biochemical; parameters: inhibition: dose or concentration left out as unconfirmed
P110 δ/Pi3K δ, sequence (O00329 whole entry, canonical isoform): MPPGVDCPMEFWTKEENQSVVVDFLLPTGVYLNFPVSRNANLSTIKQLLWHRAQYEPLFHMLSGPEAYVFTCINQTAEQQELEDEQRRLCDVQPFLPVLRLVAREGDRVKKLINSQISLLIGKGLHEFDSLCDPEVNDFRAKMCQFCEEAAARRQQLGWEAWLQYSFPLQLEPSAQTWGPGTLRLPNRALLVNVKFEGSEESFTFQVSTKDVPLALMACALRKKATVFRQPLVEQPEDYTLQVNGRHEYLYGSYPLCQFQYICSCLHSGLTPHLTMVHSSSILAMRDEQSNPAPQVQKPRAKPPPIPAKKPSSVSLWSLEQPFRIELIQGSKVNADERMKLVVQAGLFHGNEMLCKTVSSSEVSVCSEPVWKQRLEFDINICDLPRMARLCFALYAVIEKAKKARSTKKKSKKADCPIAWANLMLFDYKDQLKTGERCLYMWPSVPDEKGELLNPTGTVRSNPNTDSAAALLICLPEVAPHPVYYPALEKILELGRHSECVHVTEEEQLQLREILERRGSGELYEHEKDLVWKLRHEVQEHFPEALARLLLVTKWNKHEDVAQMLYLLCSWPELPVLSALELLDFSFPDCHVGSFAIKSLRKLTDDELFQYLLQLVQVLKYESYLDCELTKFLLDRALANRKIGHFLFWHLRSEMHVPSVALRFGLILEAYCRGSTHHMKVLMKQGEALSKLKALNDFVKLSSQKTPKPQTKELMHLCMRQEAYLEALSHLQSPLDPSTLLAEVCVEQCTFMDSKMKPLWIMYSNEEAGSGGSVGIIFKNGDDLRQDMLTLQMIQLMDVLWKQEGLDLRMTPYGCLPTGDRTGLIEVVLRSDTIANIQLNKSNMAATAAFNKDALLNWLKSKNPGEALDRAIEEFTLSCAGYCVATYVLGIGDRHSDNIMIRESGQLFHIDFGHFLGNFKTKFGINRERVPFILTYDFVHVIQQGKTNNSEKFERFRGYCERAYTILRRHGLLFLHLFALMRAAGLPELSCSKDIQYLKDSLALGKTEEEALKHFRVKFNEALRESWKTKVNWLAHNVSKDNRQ
P110 δ/Pi3K δ, sequence (P27986 whole entry partner, canonical isoform): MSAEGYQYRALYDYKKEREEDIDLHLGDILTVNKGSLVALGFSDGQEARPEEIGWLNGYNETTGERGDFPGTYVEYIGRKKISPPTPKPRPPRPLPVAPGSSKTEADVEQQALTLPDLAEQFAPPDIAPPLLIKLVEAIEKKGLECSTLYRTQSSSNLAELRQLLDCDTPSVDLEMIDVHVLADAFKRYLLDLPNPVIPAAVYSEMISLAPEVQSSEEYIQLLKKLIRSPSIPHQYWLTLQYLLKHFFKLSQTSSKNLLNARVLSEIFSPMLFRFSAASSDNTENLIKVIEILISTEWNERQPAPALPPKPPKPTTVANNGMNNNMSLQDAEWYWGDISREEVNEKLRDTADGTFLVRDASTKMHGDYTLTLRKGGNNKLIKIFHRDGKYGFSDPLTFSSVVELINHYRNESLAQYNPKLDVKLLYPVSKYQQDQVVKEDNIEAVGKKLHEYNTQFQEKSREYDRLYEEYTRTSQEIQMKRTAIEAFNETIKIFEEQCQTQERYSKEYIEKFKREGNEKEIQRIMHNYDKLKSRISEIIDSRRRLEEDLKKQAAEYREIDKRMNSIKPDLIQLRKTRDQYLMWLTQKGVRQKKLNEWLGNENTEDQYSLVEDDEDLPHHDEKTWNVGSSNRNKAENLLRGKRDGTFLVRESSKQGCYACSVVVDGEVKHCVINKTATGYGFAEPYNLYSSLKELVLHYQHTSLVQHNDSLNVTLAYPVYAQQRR
In short: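 HTRF kit detecting PIP3 formed from PIP2 by human PI3Kδ, at room temperature. Reaction started with 400 μM ATP (addition concentration) for 30 min, then stopped, and detection mix incubated 6–18 h in the dark. Percent inhibition taken against blank and enzyme controls, and IC50 fitted.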

P110α = P110α (Homo sapiens, UniProt P42336); assay: Fluorescent (HTRF) determination of PI3K enzyme activity, α isoform; type: biochemical
P110α, sequence (P42336 whole entry, canonical isoform): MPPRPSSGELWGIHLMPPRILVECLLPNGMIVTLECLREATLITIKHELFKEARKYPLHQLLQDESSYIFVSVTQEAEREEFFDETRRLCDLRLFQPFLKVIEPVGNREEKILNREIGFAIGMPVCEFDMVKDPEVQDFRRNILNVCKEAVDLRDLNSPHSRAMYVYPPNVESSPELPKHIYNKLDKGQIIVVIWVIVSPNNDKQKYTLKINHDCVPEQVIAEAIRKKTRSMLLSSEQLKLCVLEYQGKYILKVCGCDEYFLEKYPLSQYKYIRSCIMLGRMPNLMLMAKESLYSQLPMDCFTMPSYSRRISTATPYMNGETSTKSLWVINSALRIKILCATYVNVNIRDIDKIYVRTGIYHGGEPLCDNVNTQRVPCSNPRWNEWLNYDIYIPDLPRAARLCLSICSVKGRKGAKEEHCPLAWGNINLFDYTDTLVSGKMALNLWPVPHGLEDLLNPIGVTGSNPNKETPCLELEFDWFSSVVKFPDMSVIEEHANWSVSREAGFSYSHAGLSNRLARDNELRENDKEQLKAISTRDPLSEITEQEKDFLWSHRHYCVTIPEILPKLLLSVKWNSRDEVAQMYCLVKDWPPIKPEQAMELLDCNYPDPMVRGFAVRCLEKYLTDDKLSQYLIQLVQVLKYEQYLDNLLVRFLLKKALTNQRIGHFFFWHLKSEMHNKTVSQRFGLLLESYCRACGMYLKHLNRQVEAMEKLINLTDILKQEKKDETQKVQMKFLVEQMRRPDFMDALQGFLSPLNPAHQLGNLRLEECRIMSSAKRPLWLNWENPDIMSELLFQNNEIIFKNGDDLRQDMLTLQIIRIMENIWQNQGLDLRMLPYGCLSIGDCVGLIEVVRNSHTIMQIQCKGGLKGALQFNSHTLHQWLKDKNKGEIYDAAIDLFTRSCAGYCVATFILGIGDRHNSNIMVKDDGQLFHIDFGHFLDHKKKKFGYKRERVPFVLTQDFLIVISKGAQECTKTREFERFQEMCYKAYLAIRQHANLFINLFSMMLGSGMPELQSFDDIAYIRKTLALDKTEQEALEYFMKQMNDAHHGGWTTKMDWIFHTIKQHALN
P110α, sequence (P27986 whole entry partner, canonical isoform): as the sequence (P27986 whole entry partner, canonical isoform) above
From the text: as §1, §2, §3

[1] = read-out: P110 δ/ Pi3K δ IC 50 nM
[2] = read-out: P110 δ/Pi3K δ IC 50 nM

P110β, sequence (P42338 whole entry, canonical isoform): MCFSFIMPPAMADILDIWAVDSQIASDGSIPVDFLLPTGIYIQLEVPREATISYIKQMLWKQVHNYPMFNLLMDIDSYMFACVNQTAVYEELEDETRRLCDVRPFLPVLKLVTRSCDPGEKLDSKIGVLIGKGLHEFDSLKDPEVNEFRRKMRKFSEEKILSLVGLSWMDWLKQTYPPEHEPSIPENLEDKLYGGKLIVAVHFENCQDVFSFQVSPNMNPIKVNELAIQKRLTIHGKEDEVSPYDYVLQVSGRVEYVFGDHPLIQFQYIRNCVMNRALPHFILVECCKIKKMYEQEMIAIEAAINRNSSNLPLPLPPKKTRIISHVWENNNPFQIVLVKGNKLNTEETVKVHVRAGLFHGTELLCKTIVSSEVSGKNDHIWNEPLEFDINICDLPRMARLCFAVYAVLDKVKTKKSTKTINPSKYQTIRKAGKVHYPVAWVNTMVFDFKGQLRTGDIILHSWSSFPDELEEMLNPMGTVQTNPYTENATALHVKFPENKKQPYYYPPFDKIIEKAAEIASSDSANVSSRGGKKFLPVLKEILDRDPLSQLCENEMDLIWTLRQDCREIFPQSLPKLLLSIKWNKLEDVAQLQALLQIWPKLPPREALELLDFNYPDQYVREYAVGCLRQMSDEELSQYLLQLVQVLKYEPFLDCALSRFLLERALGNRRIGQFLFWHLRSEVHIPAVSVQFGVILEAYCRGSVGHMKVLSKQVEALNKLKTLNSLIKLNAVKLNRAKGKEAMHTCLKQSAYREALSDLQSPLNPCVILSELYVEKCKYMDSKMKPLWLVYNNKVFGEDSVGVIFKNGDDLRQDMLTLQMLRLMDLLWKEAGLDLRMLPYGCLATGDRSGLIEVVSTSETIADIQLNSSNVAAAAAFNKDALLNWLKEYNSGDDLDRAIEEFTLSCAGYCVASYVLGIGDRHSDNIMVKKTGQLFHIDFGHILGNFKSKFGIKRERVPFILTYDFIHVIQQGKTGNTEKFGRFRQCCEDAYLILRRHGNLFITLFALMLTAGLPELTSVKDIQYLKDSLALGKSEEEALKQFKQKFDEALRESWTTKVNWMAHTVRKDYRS
P110β, sequence (P27986 whole entry partner, canonical isoform): as the sequence (P27986 whole entry partner, canonical isoform) above

| SMILES | inhibition at 1 µM (P110β) | inhibition at 1 µM (P110γ) | IC50 (P110 δ/Pi3K δ; [1]) | inhibition at 1 µM (P110α) | inhibition at 1 µM (P110 δ/Pi3K δ) | IC50 (P110 δ/Pi3K δ; [2]) | melting point | inhibition (P110 δ/Pi3K δ) |
| --- | --- | --- | --- | --- | --- | --- | --- | --- |
| Cc1n[nH]c2cc(-c3nn([C@H](C)c4oc5ccccc5c(=O)c4-c4cccc(F)c4)c4ncnc(N)c34)ccc12 (single isomer, unassigned) [Example 128, (+)-2-(1-(4-amino-3-(3-methyl-1H-indazol-6-yl)-1H-pyrazolo[3,4-d]pyrimidin-1-yl)ethyl)-3-(3-fluorophenyl)-4H-chromen-4-one] | < 25% | 25 to 50% | < 250 nM | < 25% |  |  |  |  |
| CC(c1oc2ccccc2c(=O)c1-c1cccc(F)c1)n1cnc2c(N)ncnc21 (centres unmarked) [Example 32, 2-(1-(6-Amino-9H-purin-9-yl)ethyl)-3-(3-fluorophenyl)-4H-chromen-4-one] | < 25% | < 25% |  | < 25% | 50 to 100% | < 250 nM |  |  |
| COc1cccc(-c2nn(C(C)c3oc4ccccc4c(=O)c3-c3cccc(F)c3)c3ncnc(N)c23)c1 (centres unmarked) [Example 51, 2-(1-(4-amino-3-(3-methoxyphenyl)-1H-pyrazolo[3,4-d]pyrimidin-1-yl)ethyl)-3-(3-fluorophenyl)-4H-chromen-4-one] | 50 to 100% | < 25% |  | < 25% |  |  |  |  |
| Nc1ncnc2c1c(-c1cccc(O)c1)nn2Cc1oc2ccccc2c(=O)c1-c1ccccc1 [Example 53, 2-((4-Amino-3-(3-hydroxyphenyl)-1H-pyrazolo[3,4-d]pyrimidin-1-yl)methyl)-3-phenyl-4H-chromen-4-one] | 50 to 100% | < 25% |  | < 25% | 50 to 100% | < 250 nM | 154 to 158 °C |  |
| Nc1ncnc2c1c(-c1cccc(O)c1)nn2Cc1oc2ccccc2c(=O)c1-c1cccc(F)c1 [Example 55, 2-((4-amino-3-(3-hydroxyphenyl)-1H-pyrazolo[3,4-d]pyrimidin-1-yl)methyl)-3-(3-fluorophenyl)-4H-chromen-4-one] | < 25% | 50 to 100% |  | < 25% | 50 to 100% | < 250 nM | 280 to 283 °C |  |
| Nc1ncnc2c1c(-c1cc(O)cc(F)c1)nn2Cc1oc2ccccc2c(=O)c1-c1cccc(F)c1 [Example 68, 2-((4-amino-3-(3-fluoro-5-hydroxyphenyl)-1H-pyrazolo[3,4-d]pyrimidin-1-yl)methyl)-3-(3-fluorophenyl)-4H-chromen-4-one] | 25 to 50% | < 25% |  | < 25% | 50 to 100% | < 250 nM | 235 to 237 °C |  |
| Cc1n[nH]c2cc(-c3nn(C(C)c4oc5ccccc5c(=O)c4-c4cccc(F)c4)c4ncnc(N)c34)ccc12 (centres unmarked) [Example 79, 2-(1-(4-amino-3-(3-methyl-1H-indazol-6-yl)-1H-pyrazolo[3,4-d]pyrimidin-1-yl)ethyl)-3-(3-fluorophenyl)-4H-chromen-4-one] | 25 to 50% | 25 to 50% | < 250 nM | < 25% |  |  | 214 to 217 °C | 50 to 100% |
| Cc1n[nH]c2ccc(-c3nn(C(C)c4oc5ccccc5c(=O)c4-c4cccc(F)c4)c4ncnc(N)c34)cc12 (centres unmarked) [Example 106, 2-(1-(4-amino-3-(3-methyl-1H-indazol-5-yl)-1H-pyrazolo[3,4-d]pyrimidin-1-yl)ethyl)-3-(3-fluorophenyl)-4H-chromen-4-one] | < 25% | 25 to 50% |  |  |  |  | 254 to 256 °C | < 50% |
| Cc1n[nH]c2cc(-c3nn(C(C)c4oc5ccc(F)cc5c(=O)c4-c4cccc(F)c4)c4ncnc(N)c34)ccc12 (centres unmarked) [Example 108, 2-(1-(4-amino-3-(3-methyl-1H-indazol-6-yl)-1H-pyrazolo[3,4-d]pyrimidin-1-yl)ethyl)-6-fluoro-3-(3-fluorophenyl)-4H-chromen-4-one] | 25 to 50% | 50 to 100% | < 250 nM |  |  |  | 234 to 236 °C | 50 to 100% |
| CCc1n[nH]c2cc(-c3nn(C(C)c4oc5ccccc5c(=O)c4-c4cccc(F)c4)c4ncnc(N)c34)ccc12 (centres unmarked) [Example 110, 2-(1-(4-amino-3-(3-ethyl-1H-indazol-6-yl)-1H-pyrazolo[3,4-d]pyrimidin-1-yl)ethyl)-3-(3-fluorophenyl)-4H-chromen-4-one] | < 25% | 50 to 100% |  |  |  |  | 270 to 273 °C | 50 to 100% |
| CC(c1oc2ccccc2c(=O)c1-c1cccc(F)c1)n1nc(-c2ccc(Oc3ccccc3)cc2)c2c(N)ncnc21 (centres unmarked) [Example 139, 2-(1-(4-amino-3-(4-phenoxyphenyl)-1H-pyrazolo[3,4-d]pyrimidin-1-yl)ethyl)-3-(3-fluorophenyl)-4H-chromen-4-one] | 25 to 50% | 25 to 50% |  |  |  |  | 218 to 220 °C | < 50% |
| CC(c1oc2ccccc2c(=O)c1-c1cccc(F)c1)n1nc(-c2ccc(OCc3ccccc3)c(Cl)c2)c2c(N)ncnc21 (centres unmarked) [Example 140, 2-(1-(4-amino-3-(4-(benzyloxy)-3-chlorophenyl)-1H-pyrazolo[3,4-d]pyrimidin-1-yl)ethyl)-3-(3-fluorophenyl)-4H-chromen-4-one] | 25 to 50% | 25 to 50% |  |  |  |  | 214 to 216 °C | < 50% |
| CCOc1ccc(-c2nn(C(C)c3oc4ccccc4c(=O)c3-c3cccc(F)c3)c3ncnc(N)c23)cc1F (centres unmarked) [Example 143, 2-(1-(4-amino-3-(4-ethoxy-3-fluorophenyl)-1H-pyrazolo[3,4-d]pyrimidin-1-yl)ethyl)-3-(3-fluorophenyl)-4H-chromen-4-one] | 25 to 50% | < 25% |  |  |  |  | 216 to 218 °C | < 50% |

Results, then the compound that gave them:

| inhibition at 1 µM (P110β) | inhibition at 1 µM (P110γ) | IC50 (P110 δ/Pi3K δ; [1]) | inhibition at 1 µM (P110α) | inhibition at 1 µM (P110 δ/Pi3K δ) | IC50 (P110 δ/Pi3K δ; [2]) | melting point | inhibition (P110 δ/Pi3K δ) | SMILES |
| --- | --- | --- | --- | --- | --- | --- | --- | --- |
| 25 to 50% | < 25% |  | < 25% | 50 to 100% | < 250 nM | 212 to 216 °C |  | CC(c1oc2ccccc2c(=O)c1-c1ccccc1)n1nc(-c2cccc(O)c2)c2c(N)ncnc21 (centres unmarked) [Example 42, 2-(1-(4-Amino-3-(3-hydroxyphenyl)-1H-pyrazolo[3,4-d]pyrimidin-1-yl)ethyl)-3-phenyl-4H-chromen-4-one] |
| 25 to 50% | 25 to 50% |  | < 25% | 50 to 100% | < 250 nM | 135 to 138 °C |  | C[C@H](Nc1ncnc2[nH]cnc12)c1oc2ccccc2c(=O)c1-c1cccc(F)c1 [Example 47, (S)-2-(1-(9H-purin-6-ylamino)ethyl)-3-(3-fluorophenyl)-4H-chromen-4-one] |
| < 25% | 25 to 50% |  | < 25% |  |  | 238 to 241 °C | 50 to 100% | CC(c1oc2ccccc2c(=O)c1-c1cccc(F)c1)n1nc(-c2ccc3c(c2)CCO3)c2c(N)ncnc21 (centres unmarked) [Example 109, 2-(1-(4-amino-3-(2,3-dihydrobenzofuran-5-yl)-1H-pyrazolo[3,4-d]pyrimidin-1-yl)ethyl)-3-(3-fluorophenyl)-4H-chromen-4-one] |
| 25 to 50% | 50 to 100% |  |  |  |  | 198 to 200 °C | 50 to 100% | CC(C)Oc1ccc(-c2nn(C(C)c3oc4ccccc4c(=O)c3-c3cccc(F)c3)c3ncnc(N)c23)cc1Cl (centres unmarked) [Example 141, 2-(1-(4-amino-3-(3-chloro-4-isopropoxyphenyl)-1H-pyrazolo[3,4-d]pyrimidin-1-yl)ethyl)-3-(3-fluorophenyl)-4H-chromen-4-one] |
| 25 to 50% | < 25% |  |  |  |  | 218 to 220 °C | < 50% | CC(c1oc2ccccc2c(=O)c1-c1cccc(F)c1)n1nc(-c2cccc(N(C)C)c2)c2c(N)ncnc21 (centres unmarked) [Example 142, 2-(1-(4-amino-3-(3-(dimethylamino)phenyl)-1H-pyrazolo[3,4-d]pyrimidin-1-yl)ethyl)-3-(3-fluorophenyl)-4H-chromen-4-one] |
